Holding throughout (assay type): cell-based, human
In assay [1] the test system is DU145 cells. Kind of assay: Clonogenic assay in DU145. As to the method:
FIG. 7. Clonogenic assays in prostate cancer cells treated with compound I-1. Prostate cancer cells, DU145 (A) or PC3 (B), were plated at very low density in 6-well plates and incubated 18 h at 37° C. Cells were treated by addition of various concentrations of compound I-1 or with an equivalent volume of vehicle (DMSO), or were left untreated. After 10 days of treatment, cells were washed with cold PBS, fixed with paraformaldehyde, and stained with crystal violet solution.
Clonogenic Assay. Cells in fresh complete medium were plated at very low density (3×10^2 per well) into six-well plates for 18 h. After complete adhesion, cells were treated with compound I-1 by adding directly to the medium to give the concentration indicated in the figures. Cells were allowed to grow until visible colonies formed (10 days). Cell colonies were fixed with 4% paraformaldehyde in PBS (phosphate-buffered saline), stained with 0.25% crystal violet in 25% methanol, washed and air-dried.

Assay [2] concerns DU145 cells. The assay is described as follows: MTT assay (cytotoxicity / cell proliferation) in DU145. As to the method:
FIG. 4. Bioassay of compound I-1, compound I-2, and compound I-3. SPA14-3-2 is pure compound I-2. SPA14-3-3 is pure compound I-3. SPA14-3-4 is pure compound I-1. MTT assays using compound I-1, compound I-2, and compound I-3 against DU145 and RWPE-1 cells lines.
FIG. 8. Cell proliferation assay. (A) DU145 or PC3 prostate cancer were plated at a density of 1,500 cells per well in 96-well plates and incubated 18 hours at 37° C. to allow adherence. They were untreated or treated by addition of different concentrations of compound I-1 (which were added directly to the medium) or vehicle (DMSO), and proliferation was measured using a 3-(4,5-dimethylthiazol-2-yl)-2,5-diphenyltetrazolium bromide MTT assay after 3 days of treatment. Points, mean of triplicate normalized samples to vehicle sample; bars, SE. (B) GI50 after 3 days of treatment. (C) Prostate cancer cells (DU145 or PC3) or a non-malignant epithelial cells (RWPE-1) were plated at a density of 1,000 cells per well in 96-well plates and incubated 18 hours at 37° C. to allow adherence. They were untreated or treated by addition of different concentrations of compound I-1 (added directly to the medium) or vehicle (DMSO), and proliferation was by MTT assay after 5 days of treatment. Points, mean of triplicate normalized samples to vehicle sample; bars, SE.
Isolation, NMR, and X-ray crystallographic analyses. Leaves, stems, and few fruits of Physalis angulate L (Solanaceae) were collected in Rio Domingusa. Kuith/Barranquita, Amazonas Department, Northeastern Peru, and identified by the team led by Walter Lewis (collection voucher 18597, Ext. 1159). Dried and grounded material (46 g) was extracted with ethanol (1 L, 95%) for 7 days. The evaporated crude extract (6.26 g) was denoted SPA. An aliquot (1.5 g) of SPA was partitioned between dichloromethane (40 mL) and water (40 mL), affording two fractions: organic (SPA1, 500 mg) and aqueous (SPA2, 600 mg). All MTT assays were performed as described in Bates et al. “G-Rich Oligonucleotides for Cancer Treatment” Chapter 21 of Methods in Molecular Biology, Gene Therapy of Cancer, Wolfgang Walther and Ulrike S. Stein (eds.), Vol. 542, 2009, Humana Press. […] SPA14-3 (30 mg) was treated on an HPLC using a reverse phase C18 column eluted in gradient mode of methanol and water (from 80% methanol to 100% methanol) and detected at 254 nm, yielding SPA14-3-1 (0 mg), SPA14-3-2 (1.2 mg of pure compound I-2), SPA14-3-3 (4.1 mg of pure compound I-3), and SPA14-3-4 (18 mg of pure compound I-1).
General Experimental Procedure. Compound I-1 was isolated as described in Example Set 1, above. For samples of compound I-1 used in Example Set 2, HPLC and NMR indicated a purity of at least 95%. All experiments described in Example Set 2 were repeated at least two or three times. […]

Assay [3] deals with DU145 cells. The assay is described as follows: Flow cytometric analysis of cell cycle (propidium iodide) in DU145. As to the method: FIG. 9. Effect of compound I-1 at 5 μM on cell cycle and apoptosis. Cells were then harvested by trypsinization. (A) For flow cytometric analysis of cell cycle parameters, cells were fixed, and stained with propidium iodide. Each histogram indicates the percent of cells in G1, S, and G2/M phases of the cell cycle. Data were gated to exclude apoptotic cells for these calculations. (B) For apoptosis detection, cells were incubated with FITC-conjugated Annexin V and propidium iodide. Flow cytometric analysis was performed and the histogram for each sample was split into four quadrants to indicate: viable cells (lower left quadrant), apoptotic cells (lower right quadrant), necrotic cells (upper left quadrant), and necrotic/late apoptotic cells (upper right quadrant).
FIG. 10. Flow cytometric analysis of cell cycle parameters. DU145 prostate cancer cells were incubated for 24 h (A) or for 48 h (B) in the presence of 10 μM compound I-1 or vehicle (DMSO), or without additive (untreated). Cells were then harvested by trypsinization, fixed, and stained with propidium iodide for analysis by flow cytometry. Each histogram indicates the percent of cells in G1, S, and G2/M phases of the cell cycle. Data were gated to exclude apoptotic cells for these calculations. A small population of aneuploid cells with >4n DNA content, which became apparent in the cells treated with compound I-1, is also indicated (percentage underlined).
Flow cytometric assays of cell cycle and cell death. Cells in fresh complete medium were plated (2×10^5 per well) into six-well plates for 18 h. After complete adhesion, cells were treated as indicated in the figures and harvested by trypsinization. For cell cycle distribution, cells were fixed, and stained with propidium iodide using the Cycle Test Plus kit (Becton Dickinson). For cell death detection, cells were stained with Annexin-V-FITC and propidium iodide using the Apoptosis Detection Kit (BD Biosciences), according to the manufacturer's instructions. Cells were then analyzed by flow cytometry using a FACScalibur cytometer (BD Biosciences, Mountain View, Calif.) and FlowJo program (Tree Star, Inc., Ashland, Oreg.).
For orientation: In flow cytometry, cells or beads pass a laser one at a time.

In brackets after ≈: the same amount, converted by molar mass.

As to `C[C@@H]1CC[C@H]2C3C(O[C@]4([C@]5(O)CC6(C)C(=O)OC5C[C@@]6(C)O)CC[C@@]31O4)[C@H]1O[C@]13CC=CC(=O)[C@]23C` (some centres unmarked) [I-1], the “effect on colony formation” value in assay [1] (2.5 μM, 10 days) is “Inhibitory effects”. The “concentration that blocked the capacity of single cancer cells to generate colonies” value in assay [1] (10 days of treatment) was at least 5 µM. Besides, in assay [2] (Homo sapiens, DU-145, MTT assay, FIG. 4, read-out: GI50 against DU145), the GI50 – broadly, the concentration giving 50% growth inhibition – is around 1.5 µg/mL (≈ 3 µM). Also, in assay [2] (after three days of treatment), the “concentration of maximum antiproliferative activity” value turned out to be 10 µM. The cell cycle parameters result in assay [3] (5 μM) is listed as “not perturbed”. The “population of aneuploid cells that contain more than 4n DNA” value in assay [3] (10 μM) is recorded as “additional peak to the right of the G2/M peak”. Moreover, in assay [3] (10 μM, 24 h), the “fraction of cells in phase” value is 8%, the “proportion of cells in G2/M phases” value is listed as 49% and the “proportion of cells in S phase” value is on record as 37%. Also, in assay [3] (10 μM, 48 h), the “fraction of cell in G2/M” value is on record as 66% and the “percentage of cells in S phase” value is “decreased”.

The values are drawn from patent US9492428B2, “Compounds, compositions, pharmaceutical compositions, and methods of use” (University of Louisville Research Foundation, Inc., priority 2011, dated 2016).
